From US20180343865A1, “HERBICIDAL COMPOSITIONS COMPRISING ISOXAZOLO[5,4-B]PYRIDINES” (BASF SE, priority 2015, published 2018)
Where “and” joins values, the source holds several entries; their conditions need not be identical. Equal values may be shown once. Read-outs that look alike come from different tables or passages of the source.

What was measured:
Type in all cases: in vivo
Kochia scoparia = assay: Greenhouse postemergence herbicidal activity on KCHSC, 20 DAT; details: for inhibition at 31.25 g/ha: 31.25 gai/ha; for inhibition at 62.5 g/ha: 62.5 gai/ha
Procedure: (§1) For the post emergence treatment, the plants were first grown to the 2 leaf station (GS 12) and applied at GS 12-19 depending on the species. The herbicidal compositions were suspended or emulsified in water as distribution medium and sprayed using finely distributing nozzles.
(§2) The plants have been cultivated due to their individual requirements at 10 to 25° C. and. 20 to 35° C. The plants were irrigated due to their necessity.
(§3) The respective stated components A), were formulated as a 5% by weight strength emulsion concentrate containing wettol EM 31 20% and Cyclohexanone 80%. The respective stated components B), were formulated as either emulsifiable concentrates (EC), soluble liquids (SL), suspension concentrates (SC) or soluble granules (SG) as indicated in the table below. Component A, component B and the solvent system are introduced into the spray liquor used for applying the active compound. In the examples, the solvent used was water containing 1% Dash (Agnique ME 181 37.5%, Lutensit A-EP 22.5%, and Oleic Acid 5%) and 2% ammonium suflate.
(§4) In the following experiments, the herbicidal activity for the individual herbicide compounds (solo and mixture applications), the herbicidal succession was assessed 20 days after treatment (DAT). The evaluation for the damage on undesired weeds caused by the chemical compositions was carried out using a scale from 0 to 100%, compared to the untreated control plants. Here, 0 means no damage and 100 means complete destruction of the plants. The plants used in the greenhouse experiments belonged to the following species:
(§5) The value E, which corresponds to the effect (in %) that is to be expected if the activity of the individual compounds is additive, was calculated using the method of S. R. Colby (1967) “Calculating synergistic and antagonistic responses of herbicide combinations”, Weeds 15, p. 22 ff. Colby calculation for 2 way mixtures:
(§6) where: • X=effect in percent using herbicide A at an application rate a; • Y=effect in percent using herbicide B at an application rate b; • E=expected effect (in %) of A+B at application rates a+b
(§7) If the value observed in this manner is higher than the value E calculated according to Colby, a synergistic effect is present.

Galium aparine = assay: Greenhouse postemergence herbicidal activity on GALAP, 20 DAT; details: Galium aparine, post-emergence; for inhibition at 31.25 g/ha: 31.25 gai/ha; for inhibition at 62.5 g/ha: 62.5 gai/ha; for inhibition at 125 g/ha: 125 gai/ha; for inhibition at 250 g/ha: 250 gai/ha
Procedure: as §1, §2, §3, §4, §5, §6, §7

Matricaria chamomilla = assay: Greenhouse postemergence herbicidal activity on MATCH, 20 DAT; details: Matricaria chamomilla, post-emergence, 62.5 gai/ha
Procedure: as §1, §2, §3, §4, §5, §6, §7

Chenopodium album = assay: Greenhouse postemergence herbicidal activity on CHEAL, 20 DAT; details: for inhibition at 15.6 g/ha: 15.6 gai/ha; for inhibition at 125 g/ha: 125 gai/ha; for inhibition at 250 g/ha: 250 gai/ha
Procedure: as §1, §2, §3, §4, §5, §6, §7

Sinapis arvensis = assay: Greenhouse postemergence herbicidal activity on SINAR, 20 DAT; details: Mutarda arvensis, post-emergence, 480 h, read-out: % activity, solo (I.A)
Procedure: as §1, §2, §3, §4, §5, §6, §7

Sorghum bicolor = assay: Greenhouse postemergence herbicidal activity on SORVU, 20 DAT; details: Sorghum bicolor, post-emergence, 480 h, SORVU, postemergence, 20 DAT, read-out: % activity, solo (I.A)
Procedure: as §1, §2, §3, §4, §5, §6, §7

Setaria viridis = assay: Greenhouse postemergence herbicidal activity on SETVI, 20 DAT; details: post-emergence, 62.5 gai/ha, Table 8, read-out: % activity, solo application (I.A)
Procedure: as §1, §2
The respective stated components A), were formulated as a 5% by weight strength emulsion concentrate containing wettol EM 31 20% and Cyclohexanone 80%. The respective stated components B), were formulated as either emulsifiable concentrates (EC), soluble liquids (SL), suspension concentrates (SC) or soluble granules (SG) as indicated in the table below. […]
In the following experiments, the herbicidal activity for the individual herbicide compounds (solo and mixture applications), the herbicidal succession was assessed 20 days after treatment (DAT). […]
The value E, which corresponds to the effect (in %) that is to be expected if the activity of the individual compounds is additive, was calculated using the method of S. R. Colby (1967) “Calculating synergistic and antagonistic responses of herbicide combinations”, Weeds 15, p. […]
as §7

Polygonum convolvulus = assay: Greenhouse postemergence herbicidal activity on POLCO, 20 DAT; details: Fallopia convolvulus, post-emergence, POLCO, postemergence; for inhibition at 62.5 g/ha: 62.5 gai/ha
Procedure: as §1, §2, §3, §4, §5, §6, §7

APESV = assay: Greenhouse postemergence herbicidal activity on APESV, 20 DAT; details: post-emergence, Table 8, read-out: % activity, solo application (I.A)
AVEFA = assay: Greenhouse postemergence herbicidal activity on AVEFA, 20 DAT; details: Avena fatua, post-emergence, Table 8, read-out: % activity, solo application (I.A)
Amaranthus palmeri = assay: Greenhouse postemergence herbicidal activity on AMAPA, 20 DAT
Procedure: as §1, §2, §3, §4, §5, §6, §7

Amaranthus retroflexus = assay: Greenhouse postemergence herbicidal activity on AMARE, 20 DAT; details: AMARE, postemergence; for inhibition at 62.5 g/ha: 62.5 gai/ha
Procedure: as §1, §2, §3, §4, §5, §6, §7

BROST = assay: Greenhouse postemergence herbicidal activity on BROST, 20 DAT; details: post-emergence, 31.25 gai/ha, Table 8, read-out: % activity, solo application (I.A)
Ipomoea hederacea = assay: Greenhouse postemergence herbicidal activity on IPOHE, 20 DAT; details: for inhibition at 125 g/ha: 125 gai/ha
Procedure: as §1, §2, §3, §4, §5, §6, §7

[1] = Bassia scoparia, post-emergence, Table 6, read-out: % activity, solo application (I.A)
[2] = Bassia scoparia, post-emergence, 480 h, 20 DAT, read-out: % activity, solo (I.A)
[3] = Table 6, read-out: % activity, solo application (I.A)
[4] = Table 8, read-out: % activity, solo application (I.A)
[5] = 480 h, 20 DAT, read-out: % activity, solo (I.A)
[6] = Chenopodium album, post-emergence, Table 6, read-out: % activity, solo application (I.A)
[7] = Chenopodium album, post-emergence, 480 h, 20 DAT, read-out: % activity, solo (I.A)

CC(C)c1noc2nc(C3CC3)cc(C(=O)O)c12 [(I.A)]
% activity, solo (I.A) (Kochia scoparia; 125 gai/ha, 20 DAT): 95%
inhibition at 31.25 g/ha (Kochia scoparia; [1]): 30%
inhibition at 62.5 g/ha (Kochia scoparia; [1]): 63%
inhibition at 31.25 g/ha (Kochia scoparia; [2]): 35%
inhibition at 62.5 g/ha (Kochia scoparia; [2]): 68%
inhibition at 125 g/ha (Kochia scoparia; Bassia scoparia, post-emergence, 480 h, 125 gai/ha, 20 DAT, read-out: % activity, solo (I.A)): 90%
inhibition at 31.25 g/ha (Galium aparine; [3]): 43%
inhibition at 62.5 g/ha (Galium aparine; [3]): 60%
inhibition at 62.5 g/ha (Galium aparine; [4]): 45%
inhibition at 125 g/ha (Galium aparine; [3]): 73%
inhibition at 250 g/ha (Galium aparine; [3]): 95%
inhibition at 31.25 g/ha (Galium aparine; [5]): 43%
inhibition at 62.5 g/ha (Galium aparine; [5]): 60%
inhibition at 125 g/ha (Galium aparine; [5]): 73%
inhibition at 250 g/ha (Galium aparine; [5]): 95%
inhibition at 62.5 g/ha (Matricaria chamomilla; [4]): 70%
inhibition at 62.5 g/ha (Matricaria chamomilla; [5]): 65%
% activity, solo (I.A) (Chenopodium album; 62.5 gai/ha, 20 DAT): 65% and 93%
inhibition at 7.8 g/ha (Chenopodium album; Chenopodium album, post-emergence, 7.8 gai/ha, Table 8, read-out: % activity, solo application (I.A)): 50%
inhibition at 15.6 g/ha (Chenopodium album; Chenopodium album, post-emergence, Table 8, read-out: % activity, solo application (I.A)): 85%
inhibition at 31.25 g/ha (Chenopodium album; Chenopodium album, post-emergence, 31.25 gai/ha, Table 6, read-out: % activity, solo application (I.A)): 58%
inhibition at 62.5 g/ha (Chenopodium album; Chenopodium album, post-emergence, 62.5 gai/ha, Table 6, read-out: % activity, solo application (I.A)): 78%
inhibition at 125 g/ha (Chenopodium album; [6]): 83%
inhibition at 250 g/ha (Chenopodium album; [6]): 98%
inhibition at 15.6 g/ha (Chenopodium album; [7]): 10%
inhibition at 125 g/ha (Chenopodium album; [7]): 83%
inhibition at 250 g/ha (Chenopodium album; [7]): 98%
inhibition at 15.6 g/ha (Sinapis arvensis; 15.6 gai/ha): 95%
inhibition at 31.25 g/ha (Sinapis arvensis; 31.25 gai/ha): 78%
inhibition at 62.5 g/ha (Sinapis arvensis; 62.5 gai/ha): 83%
inhibition at 125 g/ha (Sinapis arvensis; 125 gai/ha): 90%
inhibition at 15.6 g/ha (Sorghum bicolor; 15.6 gai/ha): 30%
inhibition at 31.25 g/ha (Sorghum bicolor; 31.25 gai/ha): 30%
inhibition at 62.5 g/ha (Sorghum bicolor; 62.5 gai/ha): 30%
inhibition at 125 g/ha (Sorghum bicolor; 125 gai/ha): 40%
inhibition at 62.5 g/ha (Setaria viridis): 30%
inhibition at 15.6 g/ha (Polygonum convolvulus; 480 h, 15.6 gai/ha, 20 DAT, read-out: % activity, solo (I.A)): 30%
inhibition at 31.25 g/ha (Polygonum convolvulus; 31.25 gai/ha, Table 6, read-out: % activity, solo application (I.A)): 73%
inhibition at 62.5 g/ha (Polygonum convolvulus; [3]): 95%
inhibition at 62.5 g/ha (Polygonum convolvulus; [4]): 35%
inhibition at 125 g/ha (Polygonum convolvulus; 125 gai/ha, Table 6, read-out: % activity, solo application (I.A)): 99%
inhibition at 15.6 g/ha (APESV; 15.6 gai/ha): 0%
inhibition at 31.25 g/ha (APESV; 31.25 gai/ha): 0%
inhibition at 62.5 g/ha (APESV; 62.5 gai/ha): 0%
inhibition at 15.6 g/ha (AVEFA; 15.6 gai/ha): 0%
inhibition at 62.5 g/ha (AVEFA; 62.5 gai/ha): 20%
% activity, solo (I.A) (Amaranthus palmeri; 62.5 gai/ha): 89%
inhibition at 15.6 g/ha (Amaranthus palmeri; Amaranthus palmeri, post-emergence, 480 h, 15.6 gai/ha, read-out: % activity, solo (I.A)): 5%
inhibition at 31.25 g/ha (Amaranthus palmeri; Amaranthus palmeri, post-emergence, 480 h, 31.25 gai/ha, read-out: % activity, solo (I.A)): 80%
inhibition at 62.5 g/ha (Amaranthus palmeri; Amaranthus palmeri, post-emergence, 480 h, 62.5 gai/ha, read-out: % activity, solo (I.A)): 80%
% activity, solo (I.A) (Amaranthus retroflexus; 31.25 gai/ha, 20 DAT): 58% and 78% and 80%
inhibition at 62.5 g/ha (Amaranthus retroflexus; Amaranthus retroflexus, post-emergence, 480 h, 20 DAT, read-out: % activity, solo (I.A)): 94%
inhibition at 125 g/ha (Amaranthus retroflexus; Amaranthus retroflexus, post-emergence, 480 h, 125 gai/ha, 20 DAT, read-out: % activity, solo (I.A)): 93%
inhibition at 7.8 g/ha (Amaranthus retroflexus; Amaranthus retroflexus, post-emergence, 7.8 gai/ha, Table 8, read-out: % activity, solo application (I.A)): 0%
inhibition at 15.6 g/ha (Amaranthus retroflexus; Amaranthus retroflexus, post-emergence, 15.6 gai/ha, Table 8, read-out: % activity, solo application (I.A)): 15%
inhibition at 31.25 g/ha (Amaranthus retroflexus; Amaranthus retroflexus, post-emergence, 31.25 gai/ha, Table 6, read-out: % activity, solo application (I.A)): 65%
inhibition at 62.5 g/ha (Amaranthus retroflexus; Amaranthus retroflexus, post-emergence, Table 8, read-out: % activity, solo application (I.A)): 85%
inhibition at 31.25 g/ha (BROST): 0%
% activity, solo (I.A) (Ipomoea hederacea; 31.25 gai/ha, 20 DAT): 95%
% activity, solo (I.A) (Ipomoea hederacea; 62.5 gai/ha, 20 DAT): 95%
inhibition at 31.25 g/ha (Ipomoea hederacea; Ipomoea hederacea, post-emergence, 31.25 gai/ha, Table 6, read-out: % activity, solo application (I.A)): 75%
inhibition at 31.25 g/ha (Ipomoea hederacea; Ipomoea hederacea, post-emergence, 31.25 gai/ha, Table 8, read-out: % activity, solo application (I.A)): 50%
inhibition at 62.5 g/ha (Ipomoea hederacea; Ipomoea hederacea, post-emergence, 62.5 gai/ha, Table 6, read-out: % activity, solo application (I.A)): 87%
inhibition at 125 g/ha (Ipomoea hederacea; Ipomoea hederacea, post-emergence, Table 6, read-out: % activity, solo application (I.A)): 98%
inhibition at 128 g/ha (Ipomoea hederacea; Ipomoea hederacea, post-emergence, 128 gai/ha, Table 6, read-out: % activity, solo application (I.A)): 98%
inhibition at 250 g/ha (Ipomoea hederacea; Ipomoea hederacea, post-emergence, 250 gai/ha, Table 6, read-out: % activity, solo application (I.A)): 99%
inhibition at 15.6 g/ha (Ipomoea hederacea; Ipomoea hederacea, post-emergence, 480 h, 15.6 gai/ha, 20 DAT, read-out: % activity, solo (I.A)): 65%
inhibition at 31.25 g/ha (Ipomoea hederacea; Ipomoea hederacea, post-emergence, 480 h, 31.25 gai/ha, 20 DAT, read-out: % activity, solo (I.A)): 75%
inhibition at 62.5 g/ha (Ipomoea hederacea; Ipomoea hederacea, post-emergence, 480 h, 62.5 gai/ha, 20 DAT, read-out: % activity, solo (I.A)): 87%
inhibition at 125 g/ha (Ipomoea hederacea; Ipomoea hederacea, post-emergence, 480 h, 20 DAT, read-out: % activity, solo (I.A)): 98%
